# Starred links: 1 amine or outer side, 2 acyl side, 3 side chain; linkers in the order of their positions; H or OH if unused. Non-standard residues stand in square brackets, D forms with d. Residues, ends and D or L forms follow the SMILES beside them. X1 = CC1=CC(C)=[N+]2C1=C(c1cccc(-c3[nH]c4ccccc4c3C[C@H](N[*:1])C(=O)[*:2])c1)c1ccc(-c3ccc(C)s3)n1[B-]2(F)F
# Tests used:
# [1] = Stability analysis in mouse serum; assay type: in vitro ADME; settings: mouse serum vs PBS, 24 h, 37 °C, 500 rpm; 25 µM (Figure S14) or 50 µM (method); HPLC after CH3CN protein precipitation, and fluorescence (exc 520 nm)
# Text: Optical intravital imaging is increasingly used for the preclinical evaluation of anticancer drugs in vivo. Although imaging modalities like computed tomography, positron emission tomography and magnetic resonance imaging can help to visualise whole intact organs in a non‐invasive manner,[26] they lack the spatiotemporal resolution needed to study dynamic interactions between individual tumour and stromal cells. This feature is critical to understand the mechanism of action of anticancer drugs and how they can affect interactions between cancer cells and immune cells in the tumour microenvironment.[27] Intravital imaging heavily relies on the acquisition of fluorescence signals using multiphoton microscopy, which provides cellular resolution with deep tissue penetration (≈500 μm) and minimal photodamage.[28] […] First, we analysed the chemical stability of Apotracker Red for in vivo studies by incubating the probe in mouse serum. […] When primary tumours measured around 0.5–1 cm in diameter, we administered cisplatin intraperitoneally (10 mg kg^−1). […]
# fluorescence emission of Apotracker Red before and after incubation in mouse serum and […]
# Fluorescence spectra were recorded after excitation at 520 nm. […]
# Lipid layer assays . […] The LoD was calculated using the equation LoD = (3 × σ)/k, where σ is the standard […]
# MCF7 cells = experiment: Cell viability (TACS MTT cell proliferation assay); assay type: cell-based, human; settings: MCF7, different concentrations, 3 h, n=5
# Protocol: (§1) Figure S15. Cell viability experiments (TACS® MTT cell proliferation assay) after incubation of Apotracker Red in breast cancer cell lines (a: MCF7 cells, b: MDA-MB-231 cells) at different concentrations for 3 h. Data presented as means ± SD (n=5). P values obtained from one- way ANOVA using multiple comparisons (ns for p>0.05).
# (§2) Figure S16. Quantification of E GFP+ macrophages in tumours from untreated and cisplatin-treated mice by time- lapse imaging on a spinning disk confocal microscope (λexc: 488 nm). Data presented as means ± SD of 8 random areas in 2- 3 mice per group (untreated or treated with 10 μg g-1 cisplatin for 72 h). […]
# MDA-MB-231 cells = experiment: Cell viability (TACS MTT cell proliferation assay); assay type: cell-based, human; settings: MDA-MB-231, different concentrations, 3 h, n=5
# Protocol: as §1, §2
smiles,measurement,setting,value
CC1=CC(C)=[N+]2C1=C(c1cccc(-c3[nH]c4ccccc4c3C[C@@H]3NC(=O)[C@H](Cc4ccccc4)NC(=O)[C@H](Cc4c[nH]c5ccccc45)NC(=O)[C@H](CCCCN)NC(=O)[C@H](CCCCN)NC(=O)[C@H](CCCNC(=N)N)NC(=O)CNC3=O)c1)c1ccc(-c3ccc(C)s3)n1[B-]2(F)F [Apotracker Red] (cyclo(F[X1]GRKKW)),Proteolytic stability in mouse serum,[1],good proteolytic stability for up to 24 h
same,Cell toxicity (MTT),MCF7 cells,did not cause cell toxicity
same,Cell toxicity (MTT),MDA-MB-231 cells,did not cause cell toxicity
